A word on the inhibition: it is the share of the control response that was lost under treatment. Lower therefore signals little suppression.

In test [1] the target is FGFR1 (human) (UniProt P11362). The note with it: compound 10.0 µM.
Test [2] has as its target AKT1 (human) (UniProt P31749). Conditions: compound 10.0 µM.
In test [3] the test system is PRKACA (mouse). The note with it: compound 10.0 µM; accession and sequence are those of the human protein.
Test [4] addresses PRKAA2 (human) (UniProt P54646). The note with it: compound 10.0 µM.
The target in test [5] is PIM1 (human) (UniProt P11309). Conditions: compound 10.0 µM.
The target of test [6] is PRKAA1 (human) (UniProt Q13131). Conditions: compound 10.0 µM.
Sequence of PRKAA1 (human) (Q13131 whole entry, looked up): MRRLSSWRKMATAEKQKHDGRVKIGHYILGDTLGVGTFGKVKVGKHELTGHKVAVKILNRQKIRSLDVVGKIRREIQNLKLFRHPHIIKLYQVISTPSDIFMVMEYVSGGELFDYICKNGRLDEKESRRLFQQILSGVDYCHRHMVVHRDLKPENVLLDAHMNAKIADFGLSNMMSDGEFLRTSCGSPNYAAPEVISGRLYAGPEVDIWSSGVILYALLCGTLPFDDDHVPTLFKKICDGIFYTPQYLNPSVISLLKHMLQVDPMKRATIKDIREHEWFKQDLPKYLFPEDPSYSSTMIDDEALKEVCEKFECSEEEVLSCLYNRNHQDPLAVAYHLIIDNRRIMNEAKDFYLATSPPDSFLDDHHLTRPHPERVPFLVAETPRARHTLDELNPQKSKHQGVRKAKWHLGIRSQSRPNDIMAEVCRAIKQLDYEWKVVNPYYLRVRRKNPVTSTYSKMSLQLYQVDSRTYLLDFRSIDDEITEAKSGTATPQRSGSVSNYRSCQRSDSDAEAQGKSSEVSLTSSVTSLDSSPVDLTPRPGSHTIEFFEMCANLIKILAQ

Sequence of PIM1 (human) (P11309 whole entry, looked up): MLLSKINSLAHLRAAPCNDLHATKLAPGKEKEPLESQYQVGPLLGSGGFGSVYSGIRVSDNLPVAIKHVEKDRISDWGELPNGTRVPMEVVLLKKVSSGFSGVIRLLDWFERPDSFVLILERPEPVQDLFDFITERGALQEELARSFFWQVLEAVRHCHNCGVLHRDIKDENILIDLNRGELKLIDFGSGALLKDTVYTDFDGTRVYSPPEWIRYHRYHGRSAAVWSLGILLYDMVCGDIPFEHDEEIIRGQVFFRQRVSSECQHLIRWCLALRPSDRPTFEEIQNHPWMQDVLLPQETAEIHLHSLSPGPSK
Sequence of FGFR1 (human) (P11362 whole entry, looked up): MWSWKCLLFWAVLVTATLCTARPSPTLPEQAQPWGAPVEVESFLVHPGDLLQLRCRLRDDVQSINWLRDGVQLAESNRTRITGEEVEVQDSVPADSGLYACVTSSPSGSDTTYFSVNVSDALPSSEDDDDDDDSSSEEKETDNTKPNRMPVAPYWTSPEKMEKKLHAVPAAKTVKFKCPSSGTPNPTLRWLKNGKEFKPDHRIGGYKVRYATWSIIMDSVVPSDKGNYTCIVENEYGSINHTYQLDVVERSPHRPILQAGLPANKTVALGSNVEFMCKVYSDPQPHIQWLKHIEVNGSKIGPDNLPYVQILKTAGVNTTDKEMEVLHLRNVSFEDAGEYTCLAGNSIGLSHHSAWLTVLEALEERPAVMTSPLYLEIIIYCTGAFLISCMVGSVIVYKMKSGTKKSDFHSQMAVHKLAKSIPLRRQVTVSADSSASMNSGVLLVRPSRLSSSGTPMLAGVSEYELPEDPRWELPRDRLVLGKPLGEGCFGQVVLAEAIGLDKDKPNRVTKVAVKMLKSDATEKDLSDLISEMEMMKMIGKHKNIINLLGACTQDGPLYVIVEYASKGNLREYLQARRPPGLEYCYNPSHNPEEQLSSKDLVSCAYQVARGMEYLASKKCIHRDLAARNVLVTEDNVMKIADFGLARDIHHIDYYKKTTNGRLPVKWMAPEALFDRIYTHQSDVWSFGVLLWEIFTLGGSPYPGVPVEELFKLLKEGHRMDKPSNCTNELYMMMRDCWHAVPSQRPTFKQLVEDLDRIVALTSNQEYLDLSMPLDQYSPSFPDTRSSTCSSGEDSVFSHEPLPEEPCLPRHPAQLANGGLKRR
Sequence of AKT1 (human) (P31749 whole entry, looked up): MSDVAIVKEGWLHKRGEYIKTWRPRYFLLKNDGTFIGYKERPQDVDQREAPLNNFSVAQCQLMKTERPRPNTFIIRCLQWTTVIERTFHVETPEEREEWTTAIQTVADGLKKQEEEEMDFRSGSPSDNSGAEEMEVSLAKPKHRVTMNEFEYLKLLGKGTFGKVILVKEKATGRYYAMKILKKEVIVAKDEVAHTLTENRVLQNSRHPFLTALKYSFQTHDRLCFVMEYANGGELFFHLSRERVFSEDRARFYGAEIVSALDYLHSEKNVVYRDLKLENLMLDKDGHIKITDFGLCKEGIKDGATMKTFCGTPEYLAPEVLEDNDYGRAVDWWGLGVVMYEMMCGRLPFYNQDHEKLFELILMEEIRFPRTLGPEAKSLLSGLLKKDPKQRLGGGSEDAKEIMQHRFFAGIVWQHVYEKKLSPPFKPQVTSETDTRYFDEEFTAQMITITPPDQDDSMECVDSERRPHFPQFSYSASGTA
Sequence of PRKAA2 (human) (P54646 whole entry, looked up): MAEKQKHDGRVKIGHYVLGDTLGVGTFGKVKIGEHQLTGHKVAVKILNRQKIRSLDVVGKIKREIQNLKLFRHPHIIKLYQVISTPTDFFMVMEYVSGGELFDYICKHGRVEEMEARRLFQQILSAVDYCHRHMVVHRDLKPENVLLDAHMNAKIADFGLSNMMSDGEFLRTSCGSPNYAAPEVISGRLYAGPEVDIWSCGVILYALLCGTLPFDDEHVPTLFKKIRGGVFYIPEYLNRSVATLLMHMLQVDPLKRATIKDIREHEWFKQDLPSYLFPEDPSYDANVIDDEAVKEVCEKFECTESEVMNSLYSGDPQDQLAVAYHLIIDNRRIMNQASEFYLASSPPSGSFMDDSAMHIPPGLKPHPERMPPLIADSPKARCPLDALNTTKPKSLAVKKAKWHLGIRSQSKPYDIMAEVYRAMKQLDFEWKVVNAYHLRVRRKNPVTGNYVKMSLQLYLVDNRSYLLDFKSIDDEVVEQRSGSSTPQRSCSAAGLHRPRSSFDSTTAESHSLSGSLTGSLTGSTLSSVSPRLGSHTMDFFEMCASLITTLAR

Take `CC(C)[C@H](CO)Nc1nc(Nc2cccc(Cl)c2)c2ncn(C(C)C)c2n1`: the inhibition in test [1] came to 28%; in test [2], 0%; in test [3] it was 7%; in test [4], 0%; in test [5], 0%; in test [6] it was 5%.

Regarding `N#C/C(=C\c1ccc(O)c(O)c1)C(=O)NCc1ccccc1`, the inhibition was 0% in test [1]; 0% in test [2]; 3% in test [3]; 0% in test [4]; 0% in test [5]; 0% in test [6].

Turning to `O=C1NC(=O)C(c2ccccc2[N+](=O)[O-])=C1Nc1ccc(O)c(Cl)c1`, the inhibition in test [1] turned out to be 9%; in test [2] it was 0%; in test [3], 0%; in test [4] it was 13%; in test [5] it was 0%; in test [6], 2%.

For `C/C(O)=C(\C#N)C(=O)Nc1cc(Br)ccc1Br`, the inhibition in test [1] was 8%; in test [2], 0%; in test [3] it was 7%; in test [4], 0%; in test [5], 23%; in test [6], 0%.

As to `COc1nccc(-c2c(-c3ccc(F)cc3)ncn2[C@H]2CC[C@H](O)CC2)n1`, the inhibition in test [1], in test [2], in test [3], in test [4], in test [5] and in test [6] was 0% each time.

With `O=C1NC(=O)c2c1c1c3ccccc3n3c1c1c2c2ccccc2n1C1CCC3O1`, the inhibition was found to be 70% in test [1]; 78% in test [2]; 65% in test [3]; 70% in test [4]; 100% in test [5]; 65% in test [6].

Consider `NC(=O)c1ccc(-c2nc(-c3ccccn3)c(-c3ccc4c(c3)OCCO4)[nH]2)cc1`, for which the inhibition was determined as 0% in test [1]; 2% in test [2]; 0% in test [3]; 4% in test [4]; 2% in test [5]; 0% in test [6].

As to `O=C1Nc2cc(Br)ccc2/C1=C1/Nc2ccccc2/C1=N\O`, the inhibition was determined as 10% in test [1]; 0% in test [2]; 2% in test [3]; 6% in test [4]; 0% in test [5]; 7% in test [6].

Consider `CS(=O)c1ccc(-c2nc(-c3ccc(F)cc3)c(-c3ccncc3)[nH]2)cc1` (stereo unspecified), for which the inhibition in test [1] amounted to 11%; in test [2] it was 11%; in test [3] it was 0%; in test [4], 1%; in test [5] it was 3%; in test [6], 0%.

As to `Cc1cc(C)c(/C=C2\C(=O)Nc3ccccc32)[nH]1`, the inhibition in test [1] turned out to be 22%; in test [2], 0%; in test [3], 0%; in test [4] it was 45%; in test [5], 0%; in test [6], 50%.

`O=S(=O)(c1cccc2c(Cl)cccc12)N1CCCNCC1`: the inhibition in test [1] was 1%; in test [2], 2%; in test [3], 3%; in test [4] it was 0%; in test [5] it was 31%; in test [6] it was 0%.

With `Cn1cc(/C=C2/C(=O)Nc3cccnc32)c2ccccc21`, the inhibition in test [1] amounted to 26%; in test [2], 0%; in test [3], 0%; in test [4] it was 22%; in test [5] it was 0%; in test [6], 32%.

For `COc1ccc(Cl)cc1NC(=O)Nc1cc(C)nc2ccccc12`, the inhibition in test [1] is 7%; in test [2], 0%; in test [3], 5%; in test [4], 0%; in test [5], 14%; in test [6] it was 0%.

For the molecule `Cc1ccc(-c2nn(C(C)(C)C)c3ncnc(N)c23)cc1`, the inhibition in test [1] came out at 58%; in test [2], 2%; in test [3], 19%; in test [4] it was 0%; in test [5], 0%; in test [6], 0%.

For the molecule `O=C1c2ccccc2-c2n[nH]c3cccc1c23`, the inhibition in test [1] worked out at 1%; in test [2], 0%; in test [3], 0%; in test [4], 0%; in test [5] it was 9%; in test [6], 0%.

`Cn1cc(C2=C(c3ccc(Cl)cc3Cl)C(=O)NC2=O)c2ccccc21`: the inhibition is 12% in test [1]; 3% in test [2]; 5% in test [3]; 5% in test [4]; 32% in test [5]; 0% in test [6].

Consider `CC(C)[C@H](CO)Nc1nc(Nc2ccc(C(=O)O)c(Cl)c2)c2ncn(C(C)C)c2n1`, for which the inhibition in test [1] was 59%; in test [2], 0%; in test [3] it was 21%; in test [4], 0%; in test [5], 10%; in test [6], 0%.

As for `Cc1cc(F)c(Nc2ncnc3cc(OCc4ccccc4)ccc23)cc1O`, the inhibition was 10% in test [1]; 0% in test [2]; 2% in test [3]; 0% in test [4]; 1% in test [5]; 13% in test [6].

As to `NC(=O)Nc1sc(-c2ccc(F)cc2)cc1C(N)=O`, the inhibition in test [1] worked out at 50%; in test [2] it was 0%; in test [3] it was 4%; in test [4], 10%; in test [5], 8%; in test [6] it was 8%.

For the molecule `Cc1ccccc1C(=O)c1ccc(Nc2ccc(Br)cc2N)cc1Cl`, the inhibition amounted to 11% in test [1]; 0% in test [2]; 4% in test [3]; 0% in test [4]; 0% in test [5]; 0% in test [6].

As to `Brc1c(Br)c(Br)c2[nH]nnc2c1Br`, the inhibition in test [1] came out at 4%; in test [2], 0%; in test [3], 0%; in test [4], 0%; in test [5] it was 0%; in test [6] it was 0%.

Consider `Cc1cc2nc3c(=O)[nH]c(=O)nc-3n(C)c2cc1C=O`, for which the inhibition in test [1] was 22%; in test [2], 24%; in test [3], 11%; in test [4] it was 0%; in test [5], 23%; in test [6] it was 0%.

For `CN1CC[C@H](c2c(O)cc(O)c3c(=O)cc(-c4ccccc4Cl)oc23)[C@H](O)C1`, the inhibition worked out at 0% in test [1]; 1% in test [2]; 5% in test [3]; 1% in test [4]; 52% in test [5]; 0% in test [6].

For the molecule `CN1CCC(Nc2ncc3ncnc(Nc4ccc(F)c(Cl)c4)c3n2)CC1`, the inhibition worked out at 3% in test [1]; 0% in test [2]; 6% in test [3]; 0% in test [4]; 44% in test [5]; 0% in test [6].

Consider `O=C1NC(=O)c2c1c1c3ccccc3[nH]c1c1[nH]c3ccccc3c21`, for which the inhibition was 44% in test [1]; 22% in test [2]; 27% in test [3]; 69% in test [4]; 95% in test [5]; 60% in test [6].

As to `Cn1cc(C2=C(c3cn(CCCSC(=N)N)c4ccccc34)C(=O)NC2=O)c2ccccc21`, the inhibition stood at 31% in test [1]; 62% in test [2]; 62% in test [3]; 23% in test [4]; 96% in test [5]; 25% in test [6].

In the case of `Cn1cnc2c(NCc3ccccc3)nc(NCCO)nc21`, the inhibition is 13% in test [1]; 5% in test [2]; 5% in test [3]; 0% in test [4]; 7% in test [5]; 0% in test [6].

As to `COc1cc(CC2C(=O)OC[C@@H]2Cc2ccc(OC)c(OC)c2)ccc1O` (stereo partly specified), the inhibition in test [1] is 0%; in test [2] it was 0%; in test [3], 0%; in test [4], 2%; in test [5], 0%; in test [6], 0%.

For `NC(=O)c1ccc(-c2nc(-c3ccccn3)c(-c3ccc4c(c3)OCO4)[nH]2)cc1`, the inhibition in test [1] came to 8%; in test [2] it was 1%; in test [3], 0%; in test [4] it was 0%; in test [5], 5%; in test [6] it was 0%.

With `Nc1ccc(-c2cccc3c(=O)cc(N4CCOCC4)oc23)cc1`, the inhibition in test [1] was 12%; in test [2], 2%; in test [3], 0%; in test [4], 0%; in test [5], 78%; in test [6] it was 0%.

Take `CC(C)(C)n1nc(-c2ccc(Cl)cc2)c2c(N)ncnc21`: the inhibition in test [1] stood at 43%; in test [2] it was 0%; in test [3], 30%; in test [4], 0%; in test [5], 4%; in test [6], 0%.
